According to US7129272B2, “Apoptosis inhibitor” (Sucampo AG, priority 2000, dated 2006):

System: retina
Test: Light-induced retinal apoptosis in rats under continuous light exposure, TUNEL staining
Assay type: in vivo, SD strain rats
Conditions: SD rats exposed to 1000 lux for 4 days; 10 μg/kg subcutaneously three times a day for 4 days; TUNEL-positive cells to total cells per 200 μm of retina; n=5; control 9.3 ± 0.8; p < 0.01
Procedure: (1) Breeding Condition and Administration Method SD strain rats (male, 11 weeks old) were continuously exposed to 1000 lux of light for 4 days. During the exposure of light, the test group animals were administered subcutaneously with a composition comprising 2-decarboxy-2-(2-carboxyethyl)-13,14-dihydro-15-keto-16,16-difluoro-20-ethyl-PGE, isopropyl ester of the following formula (IV) at the amount of 10 μg/kg of the active ingredient per single administration three times a day, for 4 days. The control group animals were administrated subcutaneously the same volume of the vehicle. [drawing 7] (2) Preparation and Staining After the continuous light exposure was finished, animals of test and control groups were sacrificed by excessive etherization and both eyes of each animal were removed. The eyes were immediately fixed in a 2% paraformaldehyde and 2.5% glutaraldehyde solution in phosphate buffer, dehydrated with alcohol, and then embedded in paraffin. Thus fixed eyes were sliced parallel to the meridian of eye to provide thin retinal preparations each comprises optic disc. The obtained slices were subjected to tunnel staining (Apoptag® Intergen Company). (3) Estimation Total cell number and the number of tunnel-positive cells per 200 μm of the retina were counted and the ratio of the TUNEL-positive cells to the total cell number was determined. […]

CCCCCCC(F)(F)C(=O)CC[C@H]1[C@H](O)CC(=O)[C@@H]1CCCCCCCCC(=O)OC(C)C [formula (IV), 2-decarboxy-2-(2-carboxyethyl)-13,14-dihydro-15-keto-16,16-difluoro-20-ethyl-PGE, isopropyl ester]
Ratio of the TUNEL-positive cells (%) (Ave ± SE): 1.5 ± 0.2 %
